Like-named read-outs stand apart in the source and are kept apart here. Where a SMILES comes first, the peptide text is derived from it.

One series concerns Mate1. Conditions: read-out: IC 50 for Mate1; cited from earlier work.
The next series relates to Oct2. Conditions: read-out: IC 50 for Oct2; cited from earlier work.
In the next series the target is T1, Octn1 (Mus musculus, UniProt Q9Z306).
T1 construct: between native Octn1 in kidney tissues and transporter-gene transfected cells; from tissue; host or cells: mouse kidney slices (0.3 mm; male ICR mice, or C57BL/6J-backcrossed wild-type and Octn1-/- mice)
T1 sequence (Q9Z306 1-553): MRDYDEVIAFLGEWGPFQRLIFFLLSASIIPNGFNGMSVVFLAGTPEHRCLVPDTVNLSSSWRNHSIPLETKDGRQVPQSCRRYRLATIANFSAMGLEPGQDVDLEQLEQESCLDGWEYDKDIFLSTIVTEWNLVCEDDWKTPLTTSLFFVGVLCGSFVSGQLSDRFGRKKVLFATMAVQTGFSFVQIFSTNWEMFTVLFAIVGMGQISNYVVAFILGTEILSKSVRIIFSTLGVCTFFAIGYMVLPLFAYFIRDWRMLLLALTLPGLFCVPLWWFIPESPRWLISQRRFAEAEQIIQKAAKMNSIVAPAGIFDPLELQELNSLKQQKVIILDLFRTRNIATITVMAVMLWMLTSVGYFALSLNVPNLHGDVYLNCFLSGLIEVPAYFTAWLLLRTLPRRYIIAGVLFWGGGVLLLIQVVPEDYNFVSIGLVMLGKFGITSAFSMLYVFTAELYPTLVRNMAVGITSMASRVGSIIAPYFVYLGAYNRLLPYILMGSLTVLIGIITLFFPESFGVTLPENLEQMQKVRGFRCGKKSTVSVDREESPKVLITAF
The series is described as follows: Uptake of [3H]ergothioneine by mice kidney slices. The series is classed as in vitro ADME. Conditions: for inhibition of [3H]ergothioneine uptake by kidney slices at low inhibitor concentration: 0.5 mM carnitine, 0.1 mM cimetidine; for effect on Na+-dependent uptake of [3H]ergothioneine into mice kidney slices: Fig. 3A. The method, then:
(§1) Uptake studies using mouse kidney slices were carried out as described in a previous report after slight modifications. The slices of whole kidneys were prepared with a microslicer (Zero 1; Dosaka EM, Kyoto, Japan), and the renal pelvis portion was removed. Prepared slices (0.3 mm thick) of whole kidneys from male mice were immediately put in ice-cold oxygenated transport buffer (130 mM NaCl, 4.8 mM KCl, 1.2 mM CaCl2, 1.2 mM MgSO4, 1.2 mM KH2PO4 and 25 mM HEPES, adjusted to pH 7.4). When uptake was conducted in Na^+-free condition, NaCl was replaced with N-methyl-D-glucamine (NMG) in transport buffer. Three or four slices from one mouse, weighing each slice 2 to 10 mg, were randomly selected and then pre-incubated in a 24-well plate with 1.0 ml of oxygenated transport buffer in each well at 37 °C for 5 min. After pre-incubation, the kidney slices were put into transport buffer containing radiolabeled substrates with or without inhibitors to initiate the uptake reaction. The uptake reactions were carried out at 37 °C for an appropriate time, and then each slice was rapidly removed from the transport buffer, washed twice in ice-cold transport buffer, blotted on filter paper and weighed. For measurement of radiolabeled compounds, the slices were dissolved in 0.15 ml of 1 N NaOH. Then, the lysate was neutralized with HCl. The apparent uptake of [^14C]inulin was evaluated in independent experiments (n = 3) to estimate the volume of water adhering to the kidney slices after an incubation. […] Viability of the isolated kidney slices was assessed as described in the supplemental file.
Radioactivity was quantified with a liquid scintillation counter (Aloka, Tokyo, Japan). To calculate kinetic parameters for carrier-mediated uptake of test substrates, uptake rate was fitted to eq. (1) by means of a nonlinear least-squares regression analysis using MULTI program[36]:1 v=Vmax×s/(Km+s) where v, s, K m, and V max are the uptake rate of substrate, the substrate concentration in the medium, the apparent Michaelis-Menten constant, and the maximal uptake rate, respectively.
(§2) The half-inhibitory concentration (IC 50) values of inhibitors were obtained by examining their inhibitory effects on uptake of test substrates according to the following equation (2):2 %ofcontrol=IC50/(IC50+I) where % of control represents inhibition rate in the presence of inhibitors and I is inhibitor concentration.

The next series has as its target Mouse Octn1 (Mus musculus, UniProt Q9Z306). The note with it: Octn1-expressing HEK293 cells, previous report, cited from earlier work.
The next series has as its system Pept1/2. The series is described as follows: Uptake of [3H]Gly-Sar by mice kidney slices. Format: in vitro ADME. The note with it: for effect on uptake of [3H]Gly-Sar by mice kidney slices: 5 mM Gly-Leu, 100 μM cephadroxil, 37 °C. The protocol: Uptake studies using mouse kidney slices were carried out as described in a previous report after slight modifications. The slices of whole kidneys were prepared with a microslicer (Zero 1; Dosaka EM, Kyoto, Japan), and the renal pelvis portion was removed. Prepared slices (0.3 mm thick) of whole kidneys from male mice were immediately put in ice-cold oxygenated transport buffer (130 mM NaCl, 4.8 mM KCl, 1.2 mM CaCl2, 1.2 mM MgSO4, 1.2 mM KH2PO4 and 25 mM HEPES, adjusted to pH 7.4). When uptake was conducted in Na^+-free condition, NaCl was replaced with N-methyl-D-glucamine (NMG) in transport buffer. Three or four slices from one mouse, weighing each slice 2 to 10 mg, were randomly selected and then pre-incubated in a 24-well plate with 1.0 ml of oxygenated transport buffer in each well at 37 °C for 5 min. After pre-incubation, the kidney slices were put into transport buffer containing radiolabeled substrates with or without inhibitors to initiate the uptake reaction. The uptake reactions were carried out at 37 °C for an appropriate time, and then each slice was rapidly removed from the transport buffer, washed twice in ice-cold transport buffer, blotted on filter paper and weighed. For measurement of radiolabeled compounds, the slices were dissolved in 0.15 ml of 1 N NaOH. Then, the lysate was neutralized with HCl. The apparent uptake of [^14C]inulin was evaluated in independent experiments (n = 3) to estimate the volume of water adhering to the kidney slices after an incubation. In this study, observed extracellular adhered water space was 0.128 ± 0.004 μL/5 min/mg kidney. Viability of the isolated kidney slices was assessed as described in the supplemental file.
Radioactivity was quantified with a liquid scintillation counter (Aloka, Tokyo, Japan). To calculate kinetic parameters for carrier-mediated uptake of test substrates, uptake rate was fitted to eq. […]

In a further series the test system is PEPT1. More on the design: method as in PMID 11004485. The note with it: cited from earlier work.
The test system of a further series is PEPT2. More on the design: method as in PMID 15862787. Conditions: cited from earlier work.
The next series deals with Sglt2. More on the design: method as in PMID 22139434. Conditions: cited from earlier work.
A further series deals with T2, Octn2 (Mus musculus, UniProt Q9Z0E8).
T2 construct: from tissue; host or cells: mouse kidney slices (male ICR mice)
T2 sequence (Q9Z0E8 1-557): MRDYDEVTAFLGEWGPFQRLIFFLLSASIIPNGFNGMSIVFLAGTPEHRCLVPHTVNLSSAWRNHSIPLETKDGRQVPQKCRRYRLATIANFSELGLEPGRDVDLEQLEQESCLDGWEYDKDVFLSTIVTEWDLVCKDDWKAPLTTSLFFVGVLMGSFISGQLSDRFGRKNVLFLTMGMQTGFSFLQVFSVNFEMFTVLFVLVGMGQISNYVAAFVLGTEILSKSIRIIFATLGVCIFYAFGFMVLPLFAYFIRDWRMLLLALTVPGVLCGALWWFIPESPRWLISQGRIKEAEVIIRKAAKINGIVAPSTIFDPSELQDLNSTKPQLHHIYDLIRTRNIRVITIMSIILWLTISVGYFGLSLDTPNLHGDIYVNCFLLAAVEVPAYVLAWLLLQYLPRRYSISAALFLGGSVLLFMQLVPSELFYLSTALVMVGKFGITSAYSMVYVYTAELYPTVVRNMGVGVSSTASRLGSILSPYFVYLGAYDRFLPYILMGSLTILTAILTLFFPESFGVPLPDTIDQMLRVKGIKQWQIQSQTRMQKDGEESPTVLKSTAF
The experiment in a line: Uptake of [3H]carnitine by mice kidney slices. Format: in vitro ADME. The protocol: as §1, with “The uptake reactions were carried out at 37 °C for an appropriate time, and then each slice was rapidly removed from the transport buffer, washed twice in ice-cold transport buffer, blotted on filter paper and weighed. For measurement of radiolabeled compounds, the slices were dissolved in 0.15 ml of 1 N NaOH. Then, the lysate was neutralized with HCl.” left out, “file. […]” for “file.”

Series [1] deals with T3, Mouse Octn2 (Mus musculus, UniProt Q9Z0E8).
T3 construct: expressed in transfected cells; host or cells: HEK293
T3 sequence (Q9Z0E8 1-557): T2 sequence (Q9Z0E8 1-557)
The series is described as follows: Uptake of [3H]carnitine by Octn2-expressing HEK293 cells. Format: cell-based. The note with it: [3H]carnitine 1.0 μM, 15 sec, mock subtracted, read-out: IC 50 for carnitine uptake, Expression Model.
Procedure: The cells were grown in Dulbecco’s modified Eagle’s medium (DMEM) containing 10% (v/v) fetal bovine serum (FBS) (Life Technologies, Carlsbad, CA, USA), 100 units/ml penicillin and 100 mg/ml streptomycin at 37 °C in an atmosphere of 5% CO2. Octn1- and Octn2-expressing HEK293 cells and mock cells were plated onto 24-well poly-L-lysine-coated tissue culture plates at a density of 1.0 × 10^5 cells/well. […] Uptake reaction was initiated by adding transport buffer containing a radiolabeled substrate with or without inhibitors to each well, and incubation was carried out at 37 °C for a certain period of time. The uptake was terminated by adding ice-cold transport buffer. Then, the cells were washed three times with the transport buffer to remove adhering substrate, and lysed with 0.25 mL of 0.01% Triton X. The cellular protein content was measured with a protein assay kit (Bio-Rad) using bovine serum albumin (Fraction V, Sigma Aldrich, St. Louis, MO) as a standard[35].

The target of series [2] is T3, Mouse Octn2. More on the design: method as in PMID 11010964. The note with it: cited from earlier work.
The next series concerns Sglt1/2. The series is described as follows: Uptake of [14C]αMG by mice kidney slices. Conditions: for effect on [14C]αMG uptake by kidney slices, inhibitor alone: 30 mM galactose, D-glucose free. The series is classed as in vitro ADME. The protocol: as §1, §2
Setting [3] is: [3H]ergothioneine 1.0 μM, 3 min.

In the case of `CN/C(=N/CCSCc1nc[nH]c1C)NC#N` [Cimetidine], the IC50 was 16.3 µM in the series on Mate1 and 8 µM in the series with Oct2. For the same compound, at Octn1, the “inhibition of [3H]ergothioneine uptake by kidney slices at low inhibitor concentration” value is reported as “no significant inhibition”. At Octn1 (setting [3]), the “effect on Na+-dependent uptake of [3H]ergothioneine into mice kidney slices” value was “significantly reduced”.

`C[N+](C)(C)[C@@H](Cc1c[nH]c(=S)[nH]1)C(=O)[O-]` [Ergothioneine, ergothioneine]: the “K m of ergothioneine, Expression Model” value at Mouse Octn1 was 4.68[22] µM; at Mouse Octn1 (listed as ergothioneine), 4.68 µM. Also, the “K m in kidney slices relative to K m in Octn1-expressing HEK293 cells” value at Octn1 (81.5 μM versus 4.68 μM) was found to be 17 times. For the same compound, the “uptake in the presence of Na+ versus absence of Na+” value on Octn1 ([3H]ergothioneine 1.0 μM, pH 7.4, 37 °C, 1-20 min) was “significantly higher”. In addition, the “K m of ergothioneine uptake, Mice Kidney Slice” value on Octn1 (pH 7.4, 37 °C, 3 min, 1-250 μM) is recorded as 69.8 ± 27.6 µM. On Octn1 (slice viability, pre-incubation pH 7.4, 37 °C), the “uptake of [3H]ergothioneine in 1 hr after removal of kidney compared with 25 min” value worked out at 69.0 ± 6.6%.

Take `CC(C)CC(NC(=O)CN)C(=O)O` (stereo not shown) [Gly-Leu, glycyl-leucine]: the “effect on uptake of [3H]Gly-Sar by mice kidney slices” value in the series with Pept1/2 is reported as “decreased”.

With `CN(CC(=O)O)C(=O)CN` [Gly-Sar, glycylsarcosine] (HELM PEPTIDE1{G.[Sar]}$$$$V2.0), the “K m of Gly-Sar, Expression Model (PEPT1)” value with PEPT1 was 600 (PEPT1)[37] µM. Besides, in the series on Pept1/2 (pH 7.4, 37 °C, 5 min, 10-300 μM), the “K m of Gly-Sar uptake, Mice Kidney Slice” value was 161 ± 17 µM. Further, the “K m of Gly-Sar, Expression Model (PEPT2)” value in the series with PEPT2 is 79.5 (PEPT2)[31] µM; in the series on PEPT2 (listed as [^3H]Gly-Sar), 79.5 µM.

Take `O=C(CCc1ccc(O)cc1)c1c(O)cc(O)cc1O[C@@H]1O[C@H](CO)[C@@H](O)[C@H](O)[C@H]1O` [Phloridzin]: in the series with Sglt2 (read-out: IC 50, Expression Model (Sglt2)), the IC50 was […].

`COc1ccc(CCN(C)CCCC(C#N)(c2ccc(OC)c(OC)c2)C(C)C)cc1OC` (stereo not shown) [Verapamil]: the IC50 against Octn2 was 363 ± 142 µM; on Mouse Octn2 [1], 94.1 ± 8.9 µM.

Take `C[N+](C)(C)CC(O)CC(=O)[O-]` (stereo not shown) [carnitine]: at Octn1, the “inhibition of [3H]ergothioneine uptake by kidney slices at low inhibitor concentration” value was “no significant inhibition”. Further, the “effect on Na+-dependent uptake of [3H]ergothioneine into mice kidney slices” value at Octn1 (setting [3]) is given as “significantly reduced”. At Mouse Octn2 [2], the “K m value of carnitine for Octn2” value is recorded as 22.1 µM. Also, on Octn2 ([3H]carnitine 1.3 nM, pH 7.4, 37 °C, 1-20 min), the “uptake in the presence of Na+ versus absence of Na+” value is recorded as “significantly higher”.

In the case of `CC1=C(C(=O)O)N2C(=O)[C@@H](NC(=O)[C@H](N)c3ccc(O)cc3)[C@H]2SC1` [cephadroxil], the “effect on uptake of [3H]Gly-Sar by mice kidney slices” value in the series on Pept1/2 is recorded as “decreased”.

In the case of `CCOc1ccc(Cc2cc([C@@H]3O[C@H](CO)[C@@H](O)[C@H](O)[C@H]3O)ccc2Cl)cc1` [dapagliflozin], in the series with Sglt2 (read-out: IC 50 of Sglt2 inhibitor), the IC50 is […]. In the series on Sglt1/2 (50 nM dapagliflozin, 5 min), the “effect on [14C]αMG uptake with 30 mM galactose or 1 mM D-glucose simultaneously added” value is reported as “decreased” and the “effect on [14C]αMG uptake by kidney slices, inhibitor alone” value is listed as “not affected”. The “effect on αMG uptake in the presence of 10 mM D-glucose” value with Sglt1/2 (10 mM D-glucose, Sglt1 and Sglt2 saturated) is on record as “no further decrease”.

With `O=C[C@H](O)[C@@H](O)[C@@H](O)[C@H](O)CO` [galactose, D-galactose], in the series with Sglt1/2 (50 nM dapagliflozin, 5 min), the “effect on [14C]αMG uptake by kidney slices, inhibitor alone” value was “decreased”.

(Values after article PMC5634478, “Usefulness of kidney slices for functional analysis of apical reabsorptive transporters” (Scientific Reports, 2017).)
